The test deals with T1, p53 Y220C (Homo sapiens, UniProt P04637, Y220C).
T1 construct: The recombinant protein was a truncation mutant containing only amino acids 94-312 of p53; made in house; host or cells: E. coli
T1 sequence (P04637 94-312, change not shown): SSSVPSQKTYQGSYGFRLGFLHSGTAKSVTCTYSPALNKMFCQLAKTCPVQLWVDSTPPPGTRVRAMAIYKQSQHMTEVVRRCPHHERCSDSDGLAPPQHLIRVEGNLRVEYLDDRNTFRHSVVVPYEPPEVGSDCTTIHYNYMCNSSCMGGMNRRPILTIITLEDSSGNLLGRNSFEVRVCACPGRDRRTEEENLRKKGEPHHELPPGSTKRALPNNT
The test can be described thus: In vitro DNA binding activity assay (HTRF / TR-FRET): stabilization of p53 Y220C and increase of its DNA binding activity. The format is biochemical. The note with it: recombinant His-tagged p53 Y220C DNA binding domain (aa 94-312), biotin-labeled consensus DNA, incubated at 27° C. or 29° C. for 60 min. In a few lines: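 Compounds from 4.5 mM DMSO stocks, 3-fold serial dilutions; room-temperature incubations of 15 and 20 min. SC150 = concentration raising DNA binding by 50% over no-compound control.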
A general note: TR-FRET usually uses a lanthanide donor and a delayed reading to cut background.
`CCOc1cc(S(C)(=O)=O)ccc1NCC#Cc1cc2c(N[C@H]3CC[C@H](N4CC5(COC5)C4)CC3)cccc2n1CC(F)(F)F` [Compound 234A, 2-{3-[(2-ethoxy-4-methanesulfonylphenyl)amino]prop-1-yn-1-yl}-N-[(1R,4R)-4-{2-oxa-6-azaspiro[3.3]heptan-6-yl}cyclohexyl]-1-(2,2,2-trifluoroethyl)-1H-indol-4-amine]: the “SC150 (concentration of the compound required to increase the DNA binding activity by 50%)” value is given as “+ (+ = 0 μM ≤ SC150 < 0.05 μM)”.

With `COCCN1CCC(NC(=O)Nc2cccc3c2cc(C#CCNc2ccc(S(C)(=O)=O)cc2OC)n3CC(F)(F)F)CC1` [Compound 13A, 3-(2-{3-[(4-methanesulfonyl-2-methoxyphenyl)amino]prop-1-yn-1-yl}-1-(2,2,2-trifluoroethyl)-1H-indol-4-yl)-1-[1-(2-methoxyethyl)piperidin-4-yl]urea], the “SC150 (concentration of the compound required to increase the DNA binding activity by 50%)” value is “++++ (++++ = 0.2 μM ≤ SC150 < 1 μM)”.

Turning to `COc1cc(S(C)(=O)=O)ccc1NCC#Cc1cc2c(NC3CCN(C(=O)CC#N)CC3)cccc2n1CC(F)(F)F` [Compound 746A], the “SC150 (concentration of the compound required to increase the DNA binding activity by 50%)” value is reported as “+ (+ = 0 μM ≤ SC150 < 0.05 μM)”.

For the compound `COc1cc(S(C)(=O)=O)ccc1NCC#Cc1cc2c(N[C@@H]3CCN(CCO)C[C@@H]3F)cccc2n1CC(F)(F)F` [Compound 853A, 2-[(3S,4R)-3-fluoro-4-[(2-{3-[(4-methanesulfonyl-2-methoxyphenyl)amino]prop-1-yn-1-yl}-1-(2,2,2-trifluoroethyl)-1H-indol-4-yl)amino]piperidin-1-yl]ethan-1-ol], the “SC150 (concentration of the compound required to increase the DNA binding activity by 50%)” value was “+ (+ = 0 μM ≤ SC150 < 0.05 μM)”.

For `COc1cc(S(N)(=O)=O)ccc1NCC#Cc1cc2c(N[C@H]3CC[C@@H](N4CC5(CCOCC5)C4)CC3)cccc2n1CC(F)(F)F` [Compound 298A, 3-methoxy-4-{[3-(4-{[(1S,4S)-4-{7-oxa-2-azaspiro[3.5]nonan-2-yl}cyclohexyl]amino}-1-(2,2,2-trifluoroethyl)-1H-indol-2-yl)prop-2-yn-1-yl]amino}benzene-1-sulfonamide], the “SC150 (concentration of the compound required to increase the DNA binding activity by 50%)” value is listed as “+ (+ = 0 μM ≤ SC150 < 0.05 μM)”.

As for `COc1cc(S(=O)(=O)NC(=O)CN)ccc1NCC#Cc1cc2c(N[C@H]3CC[C@H](N4CC5(CCOCC5)C4)CC3)cccc2n1CC(F)(F)F` [Compound 307A, N-((4-((3-(4-(((1R,4R)-4-(7-oxa-2-azaspiro[3.5]nonan-2-yl)cyclohexyl)amino)-1-(2,2,2-trifluoroethyl)-1H-indol-2-yl)prop-2-yn-1-yl)amino)-3-methoxyphenyl)sulfonyl)-2-aminoacetamide], the “SC150 (concentration of the compound required to increase the DNA binding activity by 50%)” value was “+ (+ = 0 μM ≤ SC150 < 0.05 μM)”.

For `CC(C)N1CCC(Nc2cccc3c2cc(C#CCNc2ccc(S(C)(=O)=O)cc2OCF)n3CC(F)(F)F)CC1` [Compound 541A, 2-(3-{[2-(fluoromethoxy)-4-methanesulfonylphenyl]amino}prop-1-yn-1-yl)-N-[1-(propan-2-yl)piperidin-4-yl]-1-(2,2,2-trifluoroethyl)-1H-indol-4-amine], the “SC150 (concentration of the compound required to increase the DNA binding activity by 50%)” value is “+ (+ = 0 μM ≤ SC150 < 0.05 μM)”.

In the case of `COCCN1CC[C@H](Nc2cccc3c2cc(C#CCNc2ccc(C(=O)O)cc2OC)n3CC(F)(F)F)[C@H](F)C1` [Compound 904A], the “SC150 (concentration of the compound required to increase the DNA binding activity by 50%)” value is “+ (+ = 0 μM ≤ SC150 < 0.05 μM)”.

As for `COc1cc(S(N)(=O)=O)ccc1NCC#Cc1cc2c(N[C@H]3CCN[C@@H](C)C3)cccc2n1CC(F)(F)F` [Compound 464A, 3-methoxy-4-{[3-(4-{[(2S,4S)-2-methylpiperidin-4-yl]amino}-1-(2,2,2-trifluoroethyl)-1H-indol-2-yl)prop-2-yn-1-yl]amino} benzene-1-sulfonamide], the “SC150 (concentration of the compound required to increase the DNA binding activity by 50%)” value is reported as “+ (+ = 0 μM ≤ SC150 < 0.05 μM)”.

In the case of `COc1cc(C(=O)N2CCOCC2)ccc1NCC#Cc1cc2c(NC3CCN(C)CC3)cccc2n1CC(F)(F)F` [Compound 491A], the “SC150 (concentration of the compound required to increase the DNA binding activity by 50%)” value is recorded as “+ (+ = 0 μM ≤ SC150 < 0.05 μM)”.

With `CCC(=O)N1CCC(Nc2cccc3c2cc(C#CCNc2ccc(S(N)(=O)=O)cc2OC)n3CC(F)(F)F)CC1` [Compound 757A], the “SC150 (concentration of the compound required to increase the DNA binding activity by 50%)” value is “+ (+ = 0 μM ≤ SC150 < 0.05 μM)”.

On to `CS(=O)(=O)c1ccc(NCC#Cc2cc3c(NC4CCC(N5CC6(COC6)C5)CC4)cccc3n2CC(F)(F)F)c(OCF)c1` [Compound 257A, 2-(3-{[2-(fluoro-methoxy)-4-methane-sulfonylphenyl]amino}prop-1-yn-1-yl)-N-[(1R,4R)-4-{2-oxa-6-azaspiro[3.3]heptan-6-yl}cyclo-hexyl]-1-(2,2,2-trifluoroethyl)-1H-indol-4-amine], for which the “SC150 (concentration of the compound required to increase the DNA binding activity by 50%)” value is reported as “+ (+ = 0 μM ≤ SC150 < 0.05 μM)”.

In the case of `COc1cc(S(C)(=O)=O)ccc1NCC#Cc1cc2c(NC3CCOCC3)c(OC)ccc2n1CC(F)(F)F` [Compound 1012A, 2-{3-[(4-methanesulfonyl-2-methoxyphenyl)amino]prop-1-yn-1-yl}-5-methoxy-N-(oxan-4-yl)-1-(2,2,2-trifluoroethyl)-1H-indol-4-amine], the “SC150 (concentration of the compound required to increase the DNA binding activity by 50%)” value is on record as “++++ (++++ = 0.2 μM ≤ SC150 < 1 μM)”.

As to `COCC(O)CNC(=O)c1ccc(NCC#Cc2cc3c(N[C@@H]4CCN(C)C[C@@H]4F)cccc3n2CC(F)(F)F)c(OC)c1` (stereo partly drawn) [Compound 960A], the “SC150 (concentration of the compound required to increase the DNA binding activity by 50%)” value was “+ (+ = 0 μM ≤ SC150 < 0.05 μM)”.

Turning to `COC[C@@H](O)CN1CCC(Nc2cccc3c2cc(C#CCNc2ccc(S(C)(=O)=O)cc2OCF)n3CC(F)(F)F)CC1` [Compound 666A, (2S)-1-(4-{[2-(3-{[2-(fluoromethoxy)-4-methanesulfonylphenyl]amino}prop-1-yn-1-yl)-1-(2,2,2-trifluoroethyl)-1H-indol-4-yl]amino}piperidin-1-yl)-3-methoxypropan-2-ol], the “SC150 (concentration of the compound required to increase the DNA binding activity by 50%)” value is reported as “+ (+ = 0 μM ≤ SC150 < 0.05 μM)”.

In the case of `CNC(=O)c1ccc(NCC#Cc2cc3c(NC4CCN(C)CC4)cccc3n2CC(F)(F)F)c(OC)c1` [Compound 482A, 3-methoxy-N-methyl-4-[(3-{4-[(1-methylpiperidin-4-yl)amino]-1-(2,2,2-trifluoroethyl)-1H-indol-2-yl}prop-2-yn-1-yl)amino]benzamide], the “SC150 (concentration of the compound required to increase the DNA binding activity by 50%)” value is listed as “+ (+ = 0 μM ≤ SC150 < 0.05 μM)”.

As for `COCCN1CC[C@@H](Nc2cccc3c2cc(C#CCNc2ccc(C(=O)O)cc2OC)n3CC(F)(F)F)[C@@H](F)C1` [Compound 898A], the “SC150 (concentration of the compound required to increase the DNA binding activity by 50%)” value is on record as “+ (+ = 0 μM ≤ SC150 < 0.05 μM)”.

For the compound `COc1cc(S(N)(=O)=O)ccc1NCC#Cc1cc2c(NC(CCO)CCO)cccc2n1CC(F)(F)F` [Compound 4A, 4-[(3-{4-[(1,5-dihydroxypentan-3-yl)amino]-1-(2,2,2-trifluoroethyl)-1H-indol-2-yl}prop-2-yn-1-yl)amino]-3-methoxybenzene-1-sulfonamide], the “SC150 (concentration of the compound required to increase the DNA binding activity by 50%)” value was “+ (+ = 0 μM ≤ SC150 < 0.05 μM)”.

As to `CN(C)[C@H]1CC[C@@H](Nc2cccc3c2cc(C#CCNc2ccc(S(C)(=O)=O)cc2OCCO)n3CC(F)(F)F)CC1` [Compound 88A, 2-(5-methanesulfonyl-2-{[3-(4-{[(1S,4S)-4-(dimethylamino)cyclohexyl]amino}-1-(2,2,2-trifluoro-ethyl)-1H-indol-2-yl)prop-2-yn-1-yl]amino}phenoxy)ethan-1-ol], the “SC150 (concentration of the compound required to increase the DNA binding activity by 50%)” value is listed as “+ (+ = 0 μM ≤ SC150 < 0.05 μM)”.

With `COc1cc(S(C)(=O)=O)ccc1NCC#Cc1cc2c(N[C@H]3CCN(C)C[C@@H]3F)cccc2n1CC(F)(F)F` (stereo in doubt) [Compound 774A, N-((3S,4S)-3-fluoro-1-methylpiperidin-4-yl)-2-(3-((2-methoxy-4-(methylsulfonyl)phenyl)amino)prop-1-yn-1-yl)-1-(2,2,2-trifluoroethyl)-1H-indol-4-amine], the “SC150 (concentration of the compound required to increase the DNA binding activity by 50%)” value was “+ (+ = 0 μM ≤ SC150 < 0.05 μM)”.

For the compound `COc1cc(C(=O)NCC(COC(C)=O)OC(C)=O)ccc1NCC#Cc1cc2c(N[C@@H]3CCN(C)C[C@@H]3F)cccc2n1CC(F)(F)F` (stereo partly drawn) [Compound 970A, 1-(acetyloxy)-3-[(4-{[3-(4-{[(3S,4R)-3-fluoro-1-methylpiperidin-4-yl]amino}-1-(2,2,2-trifluoroethyl)-1H-indol-2-yl)prop-2-yn-1-yl]amino}-3-methoxyphenyl)formamido]propan-2-yl acetate], the “SC150 (concentration of the compound required to increase the DNA binding activity by 50%)” value was “+ (+ = 0 μM ≤ SC150 < 0.05 μM)”.

Take `CS(=O)(=O)c1ccc(NCC#Cc2cc3c(N[C@H]4CC[C@@H](N5CCC6(CC5)COC6)CC4)cccc3n2CC(F)(F)F)c(OCC#N)c1` [Compound 390A, 2-(5-methanesulfonyl-2-{[3-(4-{[(1S,4S)-4-{2-oxa-7-azaspiro[3.5]nonan-7-yl}cyclohexyl]amino}-1-(2,2,2-trifluoroethyl)-1H-indol-2-yl)prop-2-yn-1-yl]amino}phenoxy)acetonitrile]: the “SC150 (concentration of the compound required to increase the DNA binding activity by 50%)” value is listed as “+ (+ = 0 μM ≤ SC150 < 0.05 μM)”.

Turning to `COCC(O)CN1CCC(Nc2cccc3c2cc(C#CCNc2ccc(S(C)(=O)=O)cc2C)n3CC(F)(F)F)CC1` (stereo not drawn) [Compound 703A, 1-{4-[(2-{3-[(4-methanesulfonyl-2-methylphenyl)amino]prop-1-yn-1-yl}-1-(2,2,2-trifluoroethyl)-1H-indol-4-yl)amino]piperidin-1-yl}-3-methoxypropan-2-ol], the “SC150 (concentration of the compound required to increase the DNA binding activity by 50%)” value is listed as “+ (+ = 0 μM ≤ SC150 < 0.05 μM)”.

As for `COCC(O)CN1CCC(Nc2cccc3c2cc(C#CCNc2ccc(S(C)(=O)=O)cc2Cl)n3CC(F)(F)F)CC1` (stereo not drawn) [Compound 713A, 1-{4-[(2-{3-[(2-chloro-4-methanesulfonylphenyl)amino]prop-1-yn-1-yl}-1-(2,2,2-trifluoroethyl)-1H-indol-4-yl)amino]piperidin-1-yl}-3-methoxypropan-2-ol], the “SC150 (concentration of the compound required to increase the DNA binding activity by 50%)” value is reported as “+ (+ = 0 μM ≤ SC150 < 0.05 μM)”.

The record behind these values is US12428406B2 (PMV Pharmaceuticals, Inc., priority 2019, dated 2025).
